The values below come from PubChem BioAssay (NCI).

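Values below derive from 48-hour exposures of cells grown in 96-well plates, with endpoints linearly interpolated between the two concentrations bracketing the appropriate inhibition level. Abbreviation: GI50, concentration required for 50% inhibition of growth. TGI: total growth inhibition.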 Some results are limits rather than exact numbers.

Test systems include MALME-3M melanoma; NCI-H23 lung; OVCAR-3 ovarian; OVCAR-5 ovarian; SF-539 CNS; SW-620 colon; UACC-62 melanoma; A498 renal; PC-3 prostate; SR leukemia.
What all share (experiment): growth of human tumour cells (NCI), 48 h

Turning to `C[C@H]1NC(=O)C2CCCCN2C(=O)CN(C)C(=O)CNC(=O)C2CCCCN2C(=O)[C@@H](NC(=O)c2nc3ccccc3cc2O)[C@@H](C)NC(=O)C2CCCCN2C(=O)CN(C)C(=O)CNC(=O)[C@@H]2CCCCN2C(=O)C1NC(=O)c1nc2ccccc2cc1O` (stereo partly drawn), the TGI came to 0.388 µM with MALME-3M melanoma; 0.69 µM with NCI-H23 lung; 0.773 µM in the assay on OVCAR-3 ovarian; 7.55 µM in the assay on OVCAR-5 ovarian; 0.698 µM in the assay with SF-539 CNS; 12.3 µM with SW-620 colon. The same molecule had a TGI with UACC-62 melanoma of 0.105 µM.

Take `c1ccc(SC2CCSc3ccccc3C2Sc2ccccc2)cc1` (stereo not drawn): the TGI with A498 renal, in the assay on OVCAR-3 ovarian, in the assay on SF-539 CNS and in the assay on SW-620 colon was over 100 µM throughout.

For the molecule `CCOC(=O)C1(c2ccccc2)CCC(=O)CC1`, the TGI with A498 renal, with MALME-3M melanoma, with NCI-H23 lung, with OVCAR-3 ovarian, with OVCAR-5 ovarian and in the assay with SW-620 colon was over 100 µM in each case. This molecule also showed a TGI in the assay on UACC-62 melanoma of over 100 µM.

Regarding `Cc1csc(Nc2nc(-c3cccc(Br)c3)nc(C(Cl)(Cl)Cl)n2)n1`, the GI50 with A498 renal was 1060 nM; in the assay with MALME-3M melanoma, over 100000 nM; with NCI-H23 lung, over 100 µM; in the assay on OVCAR-3 ovarian, 1110 nM; in the assay on OVCAR-5 ovarian, 5.2 µM; in the assay with PC-3 prostate, 1.92 µM. Moreover, the GI50 in the assay on SF-539 CNS is 3090 nM; with SW-620 colon, 3290 nM; in the assay on UACC-62 melanoma, 3.35 µM. Further, the TGI in the assay with A498 renal is 2.47 µM; with MALME-3M melanoma, over 100 µM; in the assay with NCI-H23 lung, over 100 µM; in the assay with OVCAR-3 ovarian it was 3.24 µM; in the assay with OVCAR-5 ovarian it was over 100 µM; in the assay with PC-3 prostate, over 100 µM. Also, the TGI in the assay with SF-539 CNS, with SW-620 colon and in the assay with UACC-62 melanoma was over 100 µM each time.

For `CC(C)=CCc1cc(O)cc2c1OC(C=C(C)C)C1=C2C(=O)C2=C(NCCS2(=O)=O)C1=O` (stereo not drawn), the GI50 in the assay on A498 renal is 2940 nM; in the assay with MALME-3M melanoma, 159 nM; in the assay with NCI-H23 lung it was 1.91 µM; with OVCAR-3 ovarian, 456 nM; in the assay with OVCAR-5 ovarian, 3.72 µM; in the assay with PC-3 prostate it was 4.14 µM. Moreover, the GI50 was 2580 nM with SF-539 CNS, 2320 nM with SW-620 colon and 0.875 µM in the assay on UACC-62 melanoma. The TGI in the assay with A498 renal is 5.47 µM; in the assay with MALME-3M melanoma it was 0.834 µM; in the assay on NCI-H23 lung, 6.53 µM; with OVCAR-3 ovarian, 2.01 µM; with OVCAR-5 ovarian it was 7.01 µM; in the assay on PC-3 prostate, over 16.7 µM. For the same molecule, the TGI with SF-539 CNS came to 4.82 µM; with SW-620 colon, 5.78 µM; with UACC-62 melanoma it was 3.5 µM.

As to `COC(=O)[C@]1(C)CCCC2(C)C1CC[C@H]1C=C(C)[C@H]3CCC12C3` (stereo partly drawn), the TGI with MALME-3M melanoma, with NCI-H23 lung, in the assay with OVCAR-3 ovarian, with OVCAR-5 ovarian, with SF-539 CNS and with SR leukemia was over 100 µM in each case. Besides, the TGI with SW-620 colon and in the assay with UACC-62 melanoma was over 100 µM each time.

In the case of `C=CCCCCCCCCCCC1(O)C=CC2=[N+](CCCCCN=C(N)N)CCCN21` (stereo not drawn), the GI50 in the assay with MALME-3M melanoma is 2520 nM; with NCI-H23 lung, 12.9 µM; with OVCAR-3 ovarian, 13000 nM; in the assay with OVCAR-5 ovarian it was 6.25 µM; with PC-3 prostate, 0.466 µM; with SF-539 CNS it was 2840 nM. The GI50 with SW-620 colon was 8110 nM; in the assay with UACC-62 melanoma, 13.3 µM. Moreover, the TGI in the assay on MALME-3M melanoma came to 10.9 µM; in the assay on NCI-H23 lung, 32.3 µM; in the assay with OVCAR-3 ovarian it was 36.8 µM; in the assay with OVCAR-5 ovarian, 20.8 µM; in the assay on PC-3 prostate it was 6.39 µM; in the assay on SF-539 CNS, 7.71 µM. Besides, the values for the TGI with SW-620 colon and in the assay on UACC-62 melanoma were 24.2 µM and 28.9 µM, respectively.

For the molecule `Cc1ccc(NC(=O)C2C(=O)N(c3ccc(C)c(C)c3)C(=O)C2N=N)cc1C` (stereo not drawn), the TGI in the assay with A498 renal, in the assay on MALME-3M melanoma, in the assay with NCI-H23 lung, in the assay on OVCAR-3 ovarian, in the assay on OVCAR-5 ovarian and with SF-539 CNS was over 100 µM each time. Moreover, the TGI with SW-620 colon and in the assay on UACC-62 melanoma was over 100 µM in each case.

As for `COc1ccc2oc(-c3cccnc3)cc(=O)c2c1`, the TGI in the assay with A498 renal, in the assay with MALME-3M melanoma, in the assay on NCI-H23 lung, with OVCAR-3 ovarian and with UACC-62 melanoma was over 100 µM each time.

For the molecule `COc1ccc(/C(=N\NC(=O)C(N)=O)C(c2ccc(OC)cc2)C2(O)C(=O)Nc3c(Cl)cccc32)cc1` (stereo not drawn), the TGI in the assay with MALME-3M melanoma, in the assay with NCI-H23 lung, in the assay on OVCAR-3 ovarian, with OVCAR-5 ovarian, with SW-620 colon and in the assay on UACC-62 melanoma was over 100 µM each time.

With `O=C(CSc1nnc(-c2ccc(N=Cc3ccc(Cl)cc3)cc2)o1)Nc1ccc(Cl)cc1`, the TGI in the assay on MALME-3M melanoma, in the assay with NCI-H23 lung, in the assay with SR leukemia, in the assay with SW-620 colon and in the assay on UACC-62 melanoma was over 100 µM throughout.

As to `Cn1cnc([N+](=O)[O-])c1S(=O)(=O)Oc1ccccc1`, the GI50 is 16800 nM with A498 renal; 2140 nM in the assay on MALME-3M melanoma; 15 µM in the assay with NCI-H23 lung; 2140 nM in the assay on OVCAR-3 ovarian; 23.9 µM with OVCAR-5 ovarian; 20.6 µM with PC-3 prostate. The GI50 is 14000 nM in the assay on SF-539 CNS, 1920 nM with SW-620 colon and 14.9 µM with UACC-62 melanoma. For the same molecule, the TGI in the assay on A498 renal was determined as 38.1 µM; in the assay on MALME-3M melanoma, 4.32 µM; in the assay with NCI-H23 lung it was 37.9 µM; in the assay on OVCAR-3 ovarian, 4.3 µM; in the assay with OVCAR-5 ovarian it was 74.9 µM; with PC-3 prostate, 62 µM. In addition, the TGI in the assay on SF-539 CNS amounted to 29.8 µM; in the assay on SW-620 colon it was 4.34 µM; in the assay with UACC-62 melanoma it was 32.2 µM.

In the case of `O=C(NC(=O)c1cn(CCNCCO)c(=O)[nH]c1=O)OCc1ccccc1`, the TGI with MALME-3M melanoma, in the assay on NCI-H23 lung, in the assay with OVCAR-3 ovarian, in the assay with OVCAR-5 ovarian, in the assay with SF-539 CNS and in the assay with SR leukemia was over 100 µM throughout. Moreover, the TGI in the assay on SW-620 colon and in the assay with UACC-62 melanoma was over 100 µM throughout.
